# Experimental data as given in patent US20200362174A1, “COMPOUNDS AND METHODS FOR OPTICAL SENSING OF ELECTRICAL ACTIVITY IN BIOLOGICAL SYSTEMS” (UNIVERSITY OF CONNECTICUT, priority 2018, published 2020).
# “And” between values parts separate entries of the source, which are not always exact repeats. Equal values may be shown once. “Also recorded” adds a separate entry of the source. Where a name gives a salt, the structure may show the parent alone.
# Key:
# [1] = voltage sensitivity testing on the voltage clamped hemispherical lipid bilayer (HLB) apparatus
# [2] = water solubility / deliverability to membranes (in words); assay type: physicochemical; details: delivery to the membrane
Compound,voltage sensitivity / voltage dependence in words [1],τ-off [1],τ-on [1],"ΔF/F per 100 mV in Dynamic Range (mV) ([1]; dynamic range [−100, 0] mV)",other results
CC[N+](CC)(CC)CCC[n+]1ccc(/C=C/c2ccc3cc(N(C)CCCCCCCCCCCCNC(=O)CCCCCCCCCCCNC(=O)COCCOCCNC(=O)CCc4c([N+](=O)[O-])cc([N+](=O)[O-])c(Nc5c([N+](=O)[O-])cc([N+](=O)[O-])cc5[N+](=O)[O-])c4[N+](=O)[O-])ccc3c2)cc1 [TBFQ 17],better sensitivity than TBFQ 16; also recorded: responses in the physiological range that are larger than any previous fast VSDs,7 ± 2 ms,12 ± 2 ms,66 ± 15%,–
"CCCCN(CCCC)c1ccc2cc(C=Cc3cc[n+](CCCS(=O)(=O)[O-])cc3)ccc2c1 [Di-4-ANEPPS, 4-(2-(6-(dibutylamino)-2-naphthalenyl)ethenyl)-1-(3-sulfopropyl)pyridinium hydroxide inner salt, reference compound]",approximately linear voltage dependence,–,–,–,voltage sensitivity ([1]; approximately linear over a broad range of applied voltage): 12 %/100 mV
CC[N+](CC)(CC)CCC[n+]1ccc(/C=C/c2ccc3cc(N(C)CCCCCCCCCCCCNC(=O)CCCCCCCCCCCNC(=O)CCc4c([N+](=O)[O-])cc([N+](=O)[O-])c(Nc5c([N+](=O)[O-])cc([N+](=O)[O-])cc5[N+](=O)[O-])c4[N+](=O)[O-])ccc3c2)cc1 [TBFQ 15],–,–,–,–,"ΔF/F per 100 mV ([1]; no dynamic range printed, electrochromic behavior): 8% and 8 ± 3%"
CC[N+](CC)(CC)CCC[n+]1ccc(/C=C/c2ccc3cc(N(C)CCOCCOCCNC(=O)CCCCCCCCCCCNC(=O)COCCOCCNC(=O)CCc4c([N+](=O)[O-])cc([N+](=O)[O-])c(Nc5c([N+](=O)[O-])cc([N+](=O)[O-])cc5[N+](=O)[O-])c4[N+](=O)[O-])ccc3c2)cc1 [TBFQ 16],high voltage sensitivity,5 ± 1 ms,11 ± 2 ms,–,"change in fluorescence/100 mV ([1]; […], dye on the inside, 20 ms voltage steps): 36%; ΔF/F per 100 mV in Dynamic Range (mV) ([1]; dynamic range [−200, −100] mV): 56 ± 13%"
CN(CCCCCCCCCCCCNC(=O)CCCCCCCCCCCNC(=O)COCCOCCNC(=O)CCc1c([N+](=O)[O-])cc([N+](=O)[O-])c([N-]c2c([N+](=O)[O-])cc([N+](=O)[O-])cc2[N+](=O)[O-])c1[N+](=O)[O-])c1ccc2cc(/C=C/c3cc[n+](CCOCCOCCO)cc3)ccc2c1 [PY6242],–,–,–,–,solubility in words [2]: Low solubility
CN(CCCCCCCCCCCCNC(=O)CCCCCCCCCCCNC(=O)CCc1c([N+](=O)[O-])cc([N+](=O)[O-])c(Nc2c([N+](=O)[O-])cc([N+](=O)[O-])cc2[N+](=O)[O-])c1[N+](=O)[O-])c1ccc2cc(/C=C/c3cc[n+](CCCCS(=O)(=O)[O-])cc3)ccc2c1 [PY6256],–,–,–,24%,"ΔF/F per 100 mV in Dynamic Range (mV) ([1]; dynamic range [0, 100] mV): 39%"
